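Cells were grown in 96-well plates and exposed to each compound for 48 hours at five concentrations; endpoints were interpolated linearly between bracketing concentrations, or set to the highest concentration if not reached. Here, GI50 denotes the concentration required for 50% inhibition of growth.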 Calls of active or inactive are those of the source. Cut-off read from the data, not from the text of the source: active = GI50 up to about 1.1 µM and inactive = higher.
Legend:
Assay in all cases: NCI tumour cell line growth inhibition, 48 h
[1] = tested on: NCI-H23
[2] = tested on: U-251
[3] = tested on: SR
[4] = tested on: NCI-H226
[5] = tested on: T47D
[6] = tested on: MDA-MB-231
[7] = tested on: HOP-62
[8] = tested on: UACC-62
[9] = tested on: UO-31
[10] = tested on: SW-620
[11] = tested on: IGROV-1
[12] = tested on: MCF7
[13] = tested on: SF-268
[14] = tested on: SNB-19
[15] = tested on: LOX IMVI
[16] = tested on: OVCAR-5
[17] = tested on: EKVX
[18] = tested on: 786-0
[19] = tested on: HCT-116
[20] = tested on: MOLT-4
[21] = tested on: HCC 2998
[22] = tested on: SK-OV-3
[23] = tested on: ACHN
[24] = tested on: HL-60
[25] = tested on: NCI-H460
[26] = tested on: TK-10
[27] = tested on: OVCAR-4
[28] = tested on: A549
[29] = tested on: NCI/ADR-RES
[30] = tested on: SK-MEL-5
[31] = tested on: HOP-92
[32] = tested on: CCRF-CEM
[33] = tested on: UACC-257
[34] = tested on: RPMI-8226
[35] = tested on: Malme-3M
[36] = tested on: PC-3
[37] = tested on: BT-549
[38] = tested on: SF-295
[39] = tested on: SN12C
[40] = tested on: NCI-H522
[41] = tested on: A498
[42] = tested on: HCT-15
[43] = tested on: MDA-MB-435
[44] = tested on: HT-29
[45] = tested on: KM12
[46] = tested on: M14
[47] = tested on: SK-MEL-28
[48] = tested on: RXF 393
[49] = tested on: OVCAR-8
[50] = tested on: DU-145
[51] = tested on: CAKI-1
[52] = tested on: MDA-N
[53] = tested on: K562
[54] = tested on: Hs-578T
[55] = tested on: SK-MEL-2
[56] = tested on: COLO 205
[57] = tested on: SF-539
[58] = tested on: OVCAR-3
[59] = tested on: SNB-75

CCOC(=O)C1(C#N)C2(C#N)C(N)=NC(ON=C(C)C)(ON=C(C)C)C12C#N (stereo not drawn)
GI50 [1]: > 100 µM (inactive)
GI50 [2]: > 100 µM (inactive)
GI50 [3]: > 100 µM (inactive)
GI50 [4]: > 100 µM (inactive)
GI50 [5]: > 100 µM (inactive)
GI50 [6]: 62.4 µM (inactive)
GI50 [7]: > 100 µM (inactive)
GI50 [8]: > 100 µM (inactive)
GI50 [9]: > 100 µM (inactive)
GI50 [10]: > 100 µM (inactive)
GI50 [11]: > 100 µM (inactive)
GI50 [12]: > 100 µM (inactive)
GI50 [13]: > 100 µM (inactive)
GI50 [14]: > 100 µM (inactive)
GI50 [15]: > 100 µM (inactive)
GI50 [16]: > 100 µM (inactive)
GI50 [17]: > 100 µM (inactive)
GI50 [18]: > 100 µM (inactive)
GI50 [19]: > 100 µM (inactive)
GI50 [20]: > 100 µM (inactive)
GI50 [21]: > 100 µM (inactive)
GI50 [22]: > 100 µM (inactive)
GI50 [23]: > 100 µM (inactive)
GI50 [24]: > 100 µM (inactive)
GI50 [25]: > 100 µM (inactive)
GI50 [26]: > 100 µM (inactive)
GI50 [27]: > 100 µM (inactive)
GI50 [28]: > 100 µM (inactive)
GI50 [29]: > 100 µM (inactive)
GI50 [30]: > 100 µM (inactive)
GI50 [31]: > 100 µM (inactive)
GI50 [32]: > 100 µM (inactive)
GI50 [33]: > 100 µM (inactive)
GI50 [34]: > 100 µM (inactive)
GI50 [35]: > 100 µM (inactive)
GI50 [36]: > 100 µM (inactive)
GI50 [37]: > 100 µM (inactive)
GI50 [38]: > 100 µM (inactive)
GI50 [39]: > 100 µM (inactive)
GI50 [40]: > 100 µM (inactive)
GI50 [41]: > 100 µM (inactive)
GI50 [42]: > 100 µM
GI50 [43]: > 100 µM (inactive)
GI50 [44]: > 100 µM (inactive)
GI50 [45]: > 100 µM (inactive)
GI50 [46]: > 100 µM (inactive)
GI50 [47]: > 100 µM (inactive)
GI50 [48]: > 100 µM (inactive)
GI50 [49]: > 100 µM (inactive)
GI50 [50]: > 100 µM (inactive)
GI50 [51]: > 100 µM (inactive)
GI50 [52]: > 100 µM (inactive)
GI50 [53]: > 100 µM (inactive)
GI50 [54]: > 100 µM (inactive)
GI50 [55]: > 100 µM (inactive)
GI50 [56]: > 100 µM (inactive)

C/C1=C/C(C)CC(C)OC(=O)C(C)NC(=O)C(Cc2ccc(O)c(I)c2)N(C)C(=O)CNC(=O)C(C)C1 (stereo not drawn)
GI50 [1]: 0.409 µM (active)
GI50 [2]: < 0.01 µM (active)
GI50 [3]: < 0.01 µM (active)
GI50 [5]: 0.229 µM (active)
GI50 [6]: < 0.01 µM (active)
GI50 [7]: < 0.01 µM (active)
GI50 [9]: < 0.0109 µM (active)
GI50 [10]: < 0.01 µM (active)
GI50 [11]: < 0.01 µM (active)
GI50 [12]: 0.125 µM (active)
GI50 [13]: < 0.0186 µM (active)
GI50 [14]: 2.42 µM (inactive)
GI50 [57]: < 0.01 µM (active)
GI50 [15]: < 0.01 µM (active)
GI50 [16]: 8.81 µM (inactive)
GI50 [17]: 0.0443 µM (active)
GI50 [18]: < 0.01 µM (active)
GI50 [19]: < 0.01 µM (active)
GI50 [20]: < 0.0178 µM (active)
GI50 [21]: < 0.01 µM (active)
GI50 [22]: < 0.01 µM (active)
GI50 [23]: < 0.01 µM (active)
GI50 [24]: < 0.01 µM (active)
GI50 [25]: < 0.01 µM (active)
GI50 [26]: < 0.01 µM (active)
GI50 [27]: < 0.01 µM (active)
GI50 [28]: < 0.01 µM (active)
GI50 [29]: 0.0313 µM (active)
GI50 [30]: < 0.01 µM (active)
GI50 [31]: < 0.0112 µM (active)
GI50 [32]: < 0.01 µM (active)
GI50 [33]: < 0.01 µM (active)
GI50 [34]: < 0.01 µM (active)
GI50 [35]: 0.0272 µM (active)
GI50 [36]: < 0.01 µM (active)
GI50 [37]: < 0.01 µM (active)
GI50 [38]: 0.0101 µM (active)
GI50 [39]: 0.0342 µM (active)
GI50 [40]: < 0.01 µM (active)
GI50 [41]: < 0.01 µM (active)
GI50 [42]: < 0.0121 µM
GI50 [43]: < 0.01 µM (active)
GI50 [44]: < 0.01 µM (active)
GI50 [45]: < 0.01 µM (active)
GI50 [46]: 0.0102 µM (active)
GI50 [47]: 0.105 µM (active)
GI50 [48]: < 0.01 µM (active)
GI50 [49]: 0.0306 µM (active)
GI50 [50]: 0.0643 µM (active)
GI50 [51]: < 0.01 µM (active)
GI50 [52]: < 0.01 µM (active)
GI50 [53]: < 0.01 µM (active)
GI50 [58]: < 0.01 µM (active)
GI50 [54]: < 0.0109 µM (active)
GI50 [56]: < 0.01 µM (active)
GI50 [59]: < 0.01 µM (active)

COc1cccc(CC(=O)N2CCN(CCCc3ccccc3)CC2)c1
GI50 [1]: 36.1 µM (inactive)
GI50 [2]: > 100 µM (inactive)
GI50 [3]: 42.1 µM (inactive)
GI50 [4]: > 100 µM (inactive)
GI50 [5]: 22.2 µM (inactive)
GI50 [6]: > 100 µM (inactive)
GI50 [7]: > 100 µM (inactive)
GI50 [8]: > 100 µM (inactive)
GI50 [9]: 39.1 µM (inactive)
GI50 [10]: > 100 µM (inactive)
GI50 [11]: > 100 µM (inactive)
GI50 [12]: 60.3 µM (inactive)
GI50 [13]: > 100 µM (inactive)
GI50 [14]: > 100 µM (inactive)
GI50 [57]: > 100 µM (inactive)
GI50 [15]: > 100 µM (inactive)
GI50 [16]: > 100 µM (inactive)
GI50 [17]: 59.6 µM (inactive)
GI50 [18]: > 100 µM (inactive)
GI50 [19]: 65.6 µM (inactive)
GI50 [20]: 54.7 µM (inactive)
GI50 [21]: 98.4 µM (inactive)
GI50 [22]: > 100 µM (inactive)
GI50 [23]: 83.8 µM (inactive)
GI50 [24]: 61.2 µM (inactive)
GI50 [25]: > 100 µM (inactive)
GI50 [26]: 78.7 µM (inactive)
GI50 [27]: 34.4 µM (inactive)
GI50 [28]: 66.5 µM (inactive)
GI50 [29]: 27.9 µM (inactive)
GI50 [30]: 23.2 µM (inactive)
GI50 [31]: 25.2 µM (inactive)
GI50 [32]: 89.3 µM (inactive)
GI50 [33]: 37.3 µM (inactive)
GI50 [34]: 43.6 µM (inactive)
GI50 [36]: > 100 µM (inactive)
GI50 [37]: 33.8 µM (inactive)
GI50 [38]: 47.5 µM (inactive)
GI50 [39]: > 100 µM (inactive)
GI50 [40]: 57.9 µM (inactive)
GI50 [41]: > 100 µM (inactive)
GI50 [42]: 45.9 µM
GI50 [43]: 70.6 µM (inactive)
GI50 [44]: 31.4 µM (inactive)
GI50 [45]: > 100 µM (inactive)
GI50 [46]: 63.8 µM (inactive)
GI50 [47]: > 100 µM (inactive)
GI50 [49]: 53 µM (inactive)
GI50 [50]: > 100 µM (inactive)
GI50 [51]: 80.4 µM (inactive)
GI50 [52]: 90.8 µM (inactive)
GI50 [53]: 33.9 µM (inactive)
GI50 [58]: 60.1 µM (inactive)
GI50 [54]: > 100 µM (inactive)
GI50 [55]: > 100 µM (inactive)
GI50 [56]: 76.7 µM (inactive)
